{
  "source": "paper PMC12430429",
  "about": "“Synthesis, Structure, DNA/BSA Binding, DNA Cleaving, Cytotoxic and SOD Mimetic Activities of Copper(II) Complexes Derived from Methoxybenzylamine Schiff Base Ligands” (Molecules, 2025)",
  "test_system": "S. cerevisiae cells",
  "test": "Resazurin cytotoxicity assay (mitochondrial activity)",
  "assay_type": "cell-based",
  "details": "for Reduction Percentage (%) / Cell Death (%): 3 h incubation",
  "excerpt": "The resazurin-based model that monitors mitochondrial activity is widely used as an indicator of cell viability, proliferation and cytotoxicity. This method is based on the reduction of resazurin to resorufin by mitochondrial enzymes, as carriers of diaphorase activities, like NADPH-dehydrogenase, which are responsible for the transference of electrons from NADPH^+, H^+ to resazurin. The reduction of resazurin correlates with the number of live bacterial or mammalian cells or fungi. Furthermore, S. cerevisiae is an established model system for eukaryotic organisms. They have conserved cellular processes with high homology to those of humans. They proliferate rapidly and are even used as a model to study the effects of anticancer agents. The use of S. cerevisiae in resazurin redox testing is a good alternative to conventional cell viability testing techniques.\nThe assay is based on the ability of living cells to reduce blue resazurin (7-hydroxy-3H-phenoxazin-3-one 10-oxide) to pink resorufin (7-hydroxy-3H-phenoxazin-3-one) which is measurable by the UV–Vis spectrophotometric or fluorometric method (AlamarBlue^TM). Living cells have active N-methylphenazinium methosulfate that catalyzes the redox reaction in mitochondria of NADH and blue resazurin to produce pink resorufin (Scheme 2). This test is used as an oxidation–reduction indicator in cell viability assays for yeasts and mammalian cells. Reduction of the dye by viable cells decreases the amount of the oxidized form (blue) and, at the same time, increases the amount of its fluorescent intermediate (pink), indicating the degree of cytotoxicity caused by the test material.\nS. cerevisiae cells (CCY 21-4-64; Libáň, Czech Republic) were cultured at 28 °C/24h on Saburaud’s dextrose agar with chloramphenicol (Merck, Boston, MA, USA). Subsequently, after 24 h, S. cerevisiae cells were inoculated into sterile liquid YPD medium (Sigma–Aldrich, St. Louis, MO, USA) and cultivation continued at 28 °C/24 h. In the exponential growth phase, cells were centrifuged (8.000 g/3 min), washed twice with sterile physiological solution (0.9% NaCl) and pipetted at a concentration of 1 × 10^9 cells/mL in sterile microtubes (modified procedure from Bitacura, 2018). Sterile physiological solution and copper complexes at concentrations of 1 × 10^−3 M, 3 × 10^−3 M and 5 × 10^−3 M were added to the centrifuged biomass to a total volume of 1 mL and individual samples were cultured in an incubator at 28 °C/3 h. After 3 h, 0.1 mL of ResazurinOX (in vitro toxicology assay kit based on resazurin, Sigma, USA) was added to each sample and the samples were allowed to culture for 2 h. After incubation, the biomass in the samples was separated from the supernatant by centrifugation (8000 g/5 min). The separated solution was diluted in a ratio of 1:1 with physiological solution and subjected to the measurement of UV spectra by the spectrophotometric method according to the recommended protocol of the kit manufacturer (Sigma, USA) on a GENESYS 10S UV–Vis spectrophotometer (Thermo Scientific, USA) in the range of 500–800 nm, using a 1 cm long cuvette.\nCells’ innate metabolic was measured by using an established formula for the reduction percentage. The reduction percentage was calculated using the following formula:(7) Red(%)=ƐOX_600 nm×A570 nm_sample−ƐOX_570 nm×A600 nm_sample/ƐRED_570 nm×A600 nm_C−−ƐRED_600 nm×A570 nm_C−×100",
  "data": [
    {"smiles": "COc1ccc(CN=Cc2ccccc2[O-])cc1.COc1ccc(CN=Cc2ccccc2[O-])cc1.[Cl-].[Cl-].[Cu+2].[Cu+2]", "note": "[Complex 4c, [Cu2 (Sal-4-MeOBn)2 Cl2]]", "values": [
      {"measurement": "Reduction Percentage (%)", "setting": "complex 1 mM", "value": 5.2, "unit": "%"},
      {"measurement": "Cell Death (%)", "setting": "complex 3 mM", "value": 91.5, "unit": "%"},
      {"measurement": "Reduction Percentage (%)", "setting": "complex 3 mM", "value": 8.5, "unit": "%"},
      {"measurement": "Cell Death (%)", "setting": "complex 5 mM", "value": 97.4, "unit": "%"},
      {"measurement": "Reduction Percentage (%)", "setting": "complex 5 mM", "value": 2.6, "unit": "%"},
      {"measurement": "cytotoxic activity (cell death)", "setting": "over the tested concentrations 1–5 mM", "value": "above 94%"}
    ]},
    {"smiles": "COc1ccccc1CN=Cc1ccccc1[O-].COc1ccccc1CN=Cc1ccccc1[O-].[Cl-].[Cl-].[Cu+2].[Cu+2]", "note": "[Complex 4a, [Cu2 (Sal-2-MeOBn)2 Cl2]]", "values": [
      {"measurement": "Cell Death (%)", "setting": "complex 1 mM", "value": 67.1, "unit": "%"},
      {"measurement": "Reduction Percentage (%)", "setting": "complex 1 mM", "value": 32.9, "unit": "%"},
      {"measurement": "Cell Death (%)", "setting": "complex 3 mM", "value": 91.6, "unit": "%"},
      {"measurement": "Reduction Percentage (%)", "setting": "complex 3 mM", "value": 8.4, "unit": "%"},
      {"measurement": "Cell Death (%)", "setting": "complex 5 mM", "value": 96.5, "unit": "%"},
      {"measurement": "Reduction Percentage (%)", "setting": "complex 5 mM", "value": 3.5, "unit": "%"}
    ]},
    {"smiles": "COc1cccc(CN=Cc2ccccc2[O][Cu][O]c2ccccc2C=NCc2cccc(OC)c2)c1", "note": "[Complex 4b, [Cu (Sal-3-MeOBn)2]]", "values": [
      {"measurement": "Cell Death (%)", "setting": "complex 1 mM", "value": 76.0, "unit": "%"},
      {"measurement": "Reduction Percentage (%)", "setting": "complex 1 mM", "value": 24.0, "unit": "%"},
      {"measurement": "Cell Death (%)", "setting": "complex 3 mM", "value": 92.6, "unit": "%"},
      {"measurement": "Reduction Percentage (%)", "setting": "complex 3 mM", "value": 7.4, "unit": "%"},
      {"measurement": "Cell Death (%)", "setting": "complex 5 mM", "value": 99.0, "unit": "%"},
      {"measurement": "Reduction Percentage (%)", "setting": "complex 5 mM", "value": 1.0, "unit": "%"}
    ]}
  ]
}
